Measured values reported in paper PMC10058229, “Diverse cytomotive actins and tubulins share a polymerization switch mechanism conferring robust dynamics” (Science Advances, 2023).

Target: T1, BtubA*B (Prosthecobacter dejongeii, UniProt A0A7W7YIU5+A0A7W7YJ10, A0A7W7YIU5:R284G/A0A7W7YIU5:K286D/A0A7W7YIU5:F287G)
T1 construct: gene HNQ64_001272; BtubA M-loop triple mutant coexpressed with BtubB in E. coli C41(DE3); no tag mentioned; single protofilament polymer; Methods once print R286D instead of K286D
T1 sequence (A0A7W7YIU5 1-473 R284G/K286D/F287G): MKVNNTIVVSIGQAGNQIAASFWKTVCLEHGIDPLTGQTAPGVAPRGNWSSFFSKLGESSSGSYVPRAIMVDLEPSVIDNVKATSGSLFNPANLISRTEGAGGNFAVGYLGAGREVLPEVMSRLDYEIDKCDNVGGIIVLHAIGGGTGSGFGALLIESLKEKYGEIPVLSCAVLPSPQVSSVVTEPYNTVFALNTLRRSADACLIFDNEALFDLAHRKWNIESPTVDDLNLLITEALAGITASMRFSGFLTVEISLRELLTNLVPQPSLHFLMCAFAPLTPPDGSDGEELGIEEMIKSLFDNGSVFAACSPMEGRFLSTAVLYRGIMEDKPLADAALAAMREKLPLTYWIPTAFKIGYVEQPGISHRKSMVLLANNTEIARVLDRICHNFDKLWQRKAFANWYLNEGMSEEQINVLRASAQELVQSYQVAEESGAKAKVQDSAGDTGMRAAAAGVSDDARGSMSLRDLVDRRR
T1 sequence (A0A7W7YJ10 1-426): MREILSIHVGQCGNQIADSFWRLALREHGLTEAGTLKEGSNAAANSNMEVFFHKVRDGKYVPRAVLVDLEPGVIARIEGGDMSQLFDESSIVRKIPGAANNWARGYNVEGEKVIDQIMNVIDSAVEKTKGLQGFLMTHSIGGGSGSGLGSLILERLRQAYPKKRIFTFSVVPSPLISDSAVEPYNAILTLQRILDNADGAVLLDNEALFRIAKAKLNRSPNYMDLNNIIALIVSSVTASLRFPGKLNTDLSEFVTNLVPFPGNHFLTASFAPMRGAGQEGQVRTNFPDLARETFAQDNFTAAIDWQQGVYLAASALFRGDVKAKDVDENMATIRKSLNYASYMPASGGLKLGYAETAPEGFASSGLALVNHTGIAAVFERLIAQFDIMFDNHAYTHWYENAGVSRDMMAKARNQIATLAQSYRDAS
Assay: polymerization seen by cryo-EM (~[…] Å map)
Type: biochemical
Conditions: 5 mM GTP, 5 mM magnesium acetate, pH 7.7, 20 °C; nucleotide not resolved

With `Nc1nc2c(ncn2[C@@H]2O[C@H](COP(=O)(O)OP(=O)(O)OP(=O)(O)O)[C@@H](O)[C@H]2O)c(=O)[nH]1` [GTP] the “polymerization seen by cryo-EM (~8 Å map)” value was “BtubA*B polymerizes in the presence of GTP and GMPCPP to form straight single protofilaments”.
